# What was measured:
# [1] = Solubility in biorelevant media (FaSSIF, FeSSIF)
# Experimental: Despite such low solubility rather high doses of far above 100 mg are needed for its use in the therapy. […] Accordingly, a pharmaceutical preparation for oral administration must have a high bioavailability to provide the high doses that are needed to achieve the desired therapeutic effect. Otherwise the pharmaceutical preparation would need to have an increased size not usable for its oral administration due to problems with its swallowability.
# [2] = Solubility in oils for SEDDS/SMEDDS; assay type: physicochemical; details: oil or lipid; neutral oil
# Experimental: Due to the relatively high doses necessary for therapeutic effect (approximately 500 mg) and a maximal dose in a self-emulsifying capsule formulation (SEDDS or SMEDDS) of not more than 5 mg, the patient would have to take 100 capsules to achieve the target dose.
# [3] = Young's modulus by ultrasound-assisted instrumented single punch press; assay type: physicochemical; details: neat substance, in dependence of solid fraction; FIG. 3 and FIG. 4
# Experimental: Young's modulus is assessed as an indicator for material stiffness (the higher Young's modulus, the more rigid a substance is) whereby its measurement is done in dependence of the solid fraction, which is complementary to porosity (i.e. solid fraction=1−porosity fraction). With this, a solid fraction of 1 indicates no porosity, i.e. no air entrapped in the solid phase. Pharmaceutical relevant solid fractions usually range from 0.75 to 0.85. Porosities have been determined by nitrogen pycnometry.
# The measurements to determine the Young's modulus are conducted on a commercially available instrumented single punch press (Romaco Kilian StylOne system) with ultrasound-assisted measurement punches. For this purpose, neat substances are compacted between the upper and the lower punch, leading to densification of the material. The ultrasound velocity in the sample in dependence of the degree of densification is recorded and used for calculation of Youngs modulus of the specific substance.
structure (smiles),measurement,setting,value
"CN1CCC(COc2cnc(-c3cccc(Cn4nc(-c5cccc(C#N)c5)ccc4=O)c3)nc2)CC1 [3-(1-{3-[5-(1-Methyl-piperidin-4-ylmethoxy)-pyrimidin-2-yl]-benzyl}-6-oxo-1,6-dihydro-pyridazin-3-yl)-benzonitrile]",BCS classification,"[1]; Amidon et al., 1995",BCS IV
same,solubility,[1]; fassif,43 µg/mL
same,solubility,[2],< 5000 µg/mL
same,Young's modulus (elastic properties),[3],distinct lower Young's moduli compared to widely used pharmaceutical fillers

# Source: patent US20220288068A1, “PHARMACEUTICAL PREPARATION” (MERCK PATENT GMBH, priority 2019, published 2022)
